Reference: ChEMBL document CHEMBL1649145, “Interactions between triazoles and amphotericin B in treatment of disseminated murine infection by Fusarium oxysporum” (2009)
≈ marks a conversion by molar mass, not a printed value. Calls of active or inactive are those of the source. The calls are words filed in the database; no cut-off is given here.

What was measured:
Fusarium oxysporum [1] = assay: Antimicrobial activity against Fusarium oxysporum FMR 5205 by microdilution method; format: functional
Fusarium oxysporum [2] = assay: Antimicrobial activity against Fusarium oxysporum FMR 10281 by microdilution method; format: functional
Fusarium oxysporum [3] = assay: Antimicrobial activity against Fusarium oxysporum FMR 5205 by microdilution method in presence of voriconazole; format: functional
Fusarium oxysporum [4] = assay: Antimicrobial activity against Fusarium oxysporum FMR 10281 by microdilution method in presence of voriconazole; format: functional
Fusarium oxysporum [5] = assay: Antimicrobial activity against Fusarium oxysporum FMR 5205 by microdilution method in presence of posaconazole; format: functional
Fusarium oxysporum [6] = assay: Antimicrobial activity against Fusarium oxysporum FMR 10281 by microdilution method in presence of posaconazole; format: functional
Fusarium oxysporum [7] = assay: Antimicrobial activity against 1X 10^7 CFU Fusarium oxysporum FMR 10281 infected in immunosuppressed-OF1 mouse assessed as prolonged survival of mouse at 3 mg/kg, ip administered 1 day post infection measured 20 days post […] infection; format: functional, organism-based; set-up: dose 3 mg/kg
Fusarium oxysporum [8] = assay: Antimicrobial activity against 1X 10^7 CFU Fusarium oxysporum FMR 10281 infected in immunosuppressed-OF1 mouse assessed as prolonged survival of mouse at 100 mg/kg, po administered 1 day post infection measured 20 days post […] infection; format: functional, organism-based; set-up: dose 100 mg/kg
Fusarium oxysporum [9] = assay: Antimicrobial activity against 1X 10^7 CFU Fusarium oxysporum FMR 5205 infected in immunosuppressed-OF1 mouse assessed as reduction in kidney fungal burden at 100 mg/kg, po administered 1 day post infection measured on day 6 post dosing; format: functional, organism-based; set-up: dose 100 mg/kg
Fusarium oxysporum [10] = assay: Antimicrobial activity against 1X 10^7 CFU Fusarium oxysporum FMR 10281 infected in immunosuppressed-OF1 mouse assessed as reduction in spleen fungal burden at 100 mg/kg, po administered 1 day post infection measured on day 6 post dosing; format: functional, organism-based; set-up: dose 100 mg/kg
Fusarium oxysporum [11] = assay: Antimicrobial activity against 1X 10^7 CFU Fusarium oxysporum FMR 5205 infected in immunosuppressed-OF1 mouse assessed as reduction in spleen fungal burden at 100 mg/kg, po administered 1 day post infection measured on day 6 post dosing; format: functional, organism-based; set-up: dose 100 mg/kg
Fusarium oxysporum [12] = assay: Antimicrobial activity against 1X 10^7 CFU Fusarium oxysporum FMR 10281 infected in immunosuppressed-OF1 mouse assessed as prolonged survival of mouse at 60 mg/kg, po administered 1 day post infection measured 20 days post […] infection; format: functional, organism-based; set-up: dose 60 mg/kg
Fusarium oxysporum [13] = assay: Antimicrobial activity against 1X 10^7 CFU Fusarium oxysporum FMR 10281 infected in immunosuppressed-OF1 mouse assessed as reduction in spleen fungal burden at 3 mg/kg, ip administered 1 day post infection measured on day 6 post dosing; format: functional, organism-based; set-up: dose 3 mg/kg
Fusarium oxysporum [14] = assay: Antimicrobial activity against 1X 10^7 CFU Fusarium oxysporum FMR 5205 infected in immunosuppressed-OF1 mouse assessed as reduction in spleen fungal burden at 3 mg/kg, ip administered 1 day post infection measured on day 6 post dosing; format: functional, organism-based; set-up: dose 3 mg/kg
Fusarium oxysporum [15] = assay: Antimicrobial activity against 1X 10^7 CFU Fusarium oxysporum FMR 5205 infected in immunosuppressed-OF1 mouse assessed as reduction in kidney fungal burden at 60 mg/kg, po administered 1 day post infection measured on day 6 post dosing; format: functional, organism-based; set-up: dose 60 mg/kg

Structure (SMILES)	MIC (Fusarium oxysporum [1])	MIC (Fusarium oxysporum [2])	MIC (Fusarium oxysporum [3])	MIC (Fusarium oxysporum [4])	MIC (Fusarium oxysporum [5])	MIC (Fusarium oxysporum [6])	Activity (Fusarium oxysporum [7])	Activity (Fusarium oxysporum [8])	Activity (Fusarium oxysporum [9])	Activity (Fusarium oxysporum [10])	Activity (Fusarium oxysporum [11])	Activity (Fusarium oxysporum [12])	Activity (Fusarium oxysporum [13])	Activity (Fusarium oxysporum [14])	Activity (Fusarium oxysporum [15])
C[C@@H]1[C@H](O)[C@@H](C)/C=C/C=C/C=C/C=C/C=C/C=C/C=C/[C@H](O[C@@H]2O[C@H](C)[C@@H](O)[C@H](N)[C@@H]2O)C[C@@H]2O[C@](O)(C[C@@H](O)C[C@@H](O)[C@H](O)CC[C@@H](O)C[C@@H](O)CC(=O)O[C@H]1C)C[C@H](O)[C@H]2C(=O)O [AMPHOTERICIN B]	2 mg/L (≈ 2.16 µM)	4 mg/L (≈ 4.33 µM)	2 mg/L	4 mg/L	2 mg/L	4 mg/L	inactive								
CC[C@@H]([C@H](C)O)n1ncn(-c2ccc(N3CCN(c4ccc(OC[C@@H]5CO[C@@](Cn6cncn6)(c6ccc(F)cc6F)C5)cc4)CC3)cc2)c1=O [POSACONAZOLE]	2 mg/L (≈ 2.85 µM)	> 16 mg/L						Active	Active	Active	Active				
C[C@@H](c1ncncc1F)[C@](O)(Cn1cncn1)c1ccc(F)cc1F [VORICONAZOLE]	4 mg/L (≈ 11.5 µM)	16 mg/L (≈ 45.8 µM)										inactive	Active	Active	Active
